Patent publication US20110223167A1, “COMBINATION THERAPY USING RECEPTOR TYROSINE KINASE INHIBITORS AND ANGIOGENESIS INHIBITORS” (priority 2001, published 2011)

Test system: progressive squamous cell carcinoma of the superior maxilla
Conditions: for tumor response: weekly: 1200 mg/m^2 Cilengitide Monday and Friday, 200 mg EMD 72000 followed by 1000 mg/m^2 gemcitabine Thursday, from November 2000; for effect on tumor growth: cisplatin (75 mg/m^2) and docetaxel (75 mg/m^2) together, three administrations, from August 1999
[1] = EMD 121974 (600 mg/m^2) combined with gemcitabine (1000 mg/m^2), since mid of January 2000

Procedure: Case History and Clinical Findings/Status at the Start of the Compassionate use Treatment:
A biopsy of the suspected large tumor in the upper maxilla was performed. […] On Aug. […] Due to the unfavourable histologic classification the patient received a post-operative radiation therapy up to 50.4 Gray from September to October 1997.
In July 1998 progression of disease was suspected which led to hospitalization. […] After consultation of radiotherapists another radiotherapy was recommended which started in August 1998. The patient was treated simultaneously with gemcitabine (100 mg) as a radiosensitizer. […] Following the combined radio-chemotherapy the patient received a therapy with 1000 mg gemcitabine (5 circles of 16 administrations).
In March 1999 again progression of the carcinoma occurred which led to additional radiation therapy and palliative resection of the tumor.
Diffuse bleedings out of the large tumor mass required frequent transfusions of erythrocyte concentrates.
Course of Compassionate Use Treatment with Anti-Angiogenic Agent/Chemotherapeutic Agents:
The patient was treated with EMD 121974 and Gemzar from Nov. 17, 1999 until Mar. 30, 2000. From Jun. 04, 2000 until Apr. […] Chemotherapy-treatment was stopped because of haematotoxicity and Cilengitide treatment was continued alone.
The patient's condition worsened after several weeks and the patient was treated with an increased dose of 1200 mg/m^2 EMD 121974 twice weekly.
Treatment with h425+Cilengitide+Chemotherapeutics:
EMD 72000 was first given in November 2000 in a dosage of 200 mg (infusion over half an hour) after premedication with dexamethasone/dimetindenmaleate (Fenistil) and ranitidin (Zantic). One week later the patient received additionally gemcitabine (1000 mg/m^2). The weekly treatment schedule was: Monday: 1200 mg/m^2 Cilengitide (one hour is infusion), Thursday 200 mg EMD 72000 (half an hour infusion) followed by 1000 mg/m^2 gemcitabine (one hour infusion), Friday 1200 mg/m^2 Cilengitide (one hour infusion). […] The tumor masses were surgically removed at several occasions.

With `CC(C)[C@H]1C(=O)N[C@@H](CCCN=C(N)N)C(=O)NCC(=O)N[C@@H](CC(=O)O)C(=O)N[C@H](Cc2ccccc2)C(=O)N1C` [EMD 121974, Cyclo-(Arg-Gly-Asp-DPhe-NMeVal)] the “surface of the tumor” value (EMD 121974 (600 mg/m^2) combined with gemcitabine (1000 mg/m^2)) was “signs of granulation and wound healing”, the tumor bleeding (EMD 121974 (600 mg/m^2) combined with gemcitabine (1000 mg/m^2), no need for further transfusions) was “Bleeding stopped” and the hearing [1] was “able to hear again on their right ear”. The “increase of mouth opening compared with December 1999” value [1] was 30%, the disease status (EMD 121974 alone, 600 mg/m^2 twice a week, April to June 2000) was “stable disease” and the tumor response was “crater-like disintegration of the tumor mass”.

With `N.N.[Cl][Pt][Cl]` [cisplatin, reference compound] the “effect on tumor growth” value was “lack of effect on tumor growth”.

With `CC(=O)O[C@@]12CO[C@@H]1C[C@H](O)[C@@]1(C)C(=O)[C@H](O)C3=C(C)[C@@H](OC(=O)[C@H](O)[C@@H](NC(=O)OC(C)(C)C)c4ccccc4)C[C@@](O)([C@@H](OC(=O)c4ccccc4)[C@H]21)C3(C)C` [docetaxel, reference compound] the “effect on tumor growth” value was “lack of effect on tumor growth”.

With `Nc1ccn([C@@H]2O[C@H](CO)[C@@H](O)C2(F)F)c(=O)n1` [gemcitabine, reference compound] the “tumor response (clinical remission)” value (radiotherapy with simultaneous gemcitabine (100 mg) as radiosensitizer, 6 week-therapy from August 1998) was “complete clinical remission”.

In the case of “EMD 72000: Monoclonal human antibody 425 (h425), Merck KgaA, Germany; anti-EGFR antibody”, the tumor response is reported as “crater-like disintegration of the tumor mass”.
